Assay results taken from PubChem BioAssay (NCI).
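All cell lines were grown in 96-well plates and treated with compound for 48 hours. Abbreviation: GI50, concentration required for 50% inhibition of growth. TGI marks complete inhibition of growth.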

Columns and labels:
Experiment in all cases: inhibition of tumour cell growth, NCI panel, 48 h
[1] = tested on: IGROV1 ovarian
[2] = tested on: MDA-MB-435
[3] = tested on: OVCAR-4 ovarian
[4] = tested on: SNB-75 CNS
[5] = tested on: NCI-H23 lung
[6] = tested on: ACHN renal
[7] = tested on: EKVX NSCLC
[8] = tested on: SK-OV-3 ovarian
[9] = tested on: MDA-MB-231 breast
[10] = tested on: MCF7 breast
[11] = tested on: K-562 leukemia
[12] = tested on: BT-549 breast
[13] = tested on: SNB-19 CNS
[14] = tested on: COLO 205 colon
[15] = tested on: UACC-257 melanoma
[16] = tested on: NCI-H522 lung
[17] = tested on: OVCAR-8 ovarian
[18] = tested on: NCI/ADR-RES ovarian
[19] = tested on: HOP-62 NSCLC
[20] = tested on: NCI-H460 lung
[21] = tested on: SF-539 CNS
[22] = tested on: SW-620 colon
[23] = tested on: CAKI-1 renal
[24] = tested on: SR leukemia
[25] = tested on: UACC-62 melanoma
[26] = tested on: KM12 colon
[27] = tested on: SK-MEL-28 melanoma
[28] = tested on: U251 CNS
[29] = tested on: LOX IMVI melanoma
[30] = tested on: M14 melanoma
[31] = tested on: SK-MEL-5 melanoma
[32] = tested on: 786-0 renal
[33] = tested on: SN12C renal
[34] = tested on: SK-MEL-2 melanoma
[35] = tested on: SF-295 CNS
[36] = tested on: OVCAR-5 ovarian
[37] = tested on: MALME-3M melanoma
[38] = tested on: HL-60(TB) leukemia
[39] = tested on: HCC-2998 colon
[40] = tested on: HCT-15 colon
[41] = tested on: DU-145 prostate
[42] = tested on: MOLT-4 leukemia
[43] = tested on: A498 renal
[44] = tested on: HT29 colon
[45] = tested on: PC-3 prostate
[46] = tested on: TK-10 renal
[47] = tested on: RPMI-8226 leukemia
[48] = tested on: A549 NSCLC
[49] = tested on: NCI-H226 lung
[50] = tested on: T-47D breast
[51] = tested on: HOP-92 NSCLC
[52] = tested on: SF-268 CNS
[53] = tested on: UO-31 renal
[54] = tested on: HCT-116 colon
[55] = tested on: OVCAR-3 ovarian
[56] = tested on: HS 578T breast
[57] = tested on: CCRF-CEM leukemia

Cc1cc(Nc2ccc3c(c2)OCO3)c2cc3c(cc2n1)OCO3
GI50 [1]: 0.318 µM
TGI [1]: 3.8 µM
GI50 [2]: 0.265 µM
TGI [2]: 1.37 µM
GI50 [3]: 5.2 µM
TGI [3]: 44.4 µM
GI50 [4]: 0.766 µM
TGI [4]: 7.38 µM
GI50 [5]: 3.93 µM
TGI [5]: 23.7 µM
GI50 [6]: 6.23 µM
TGI [6]: 26.6 µM
GI50 [7]: 1.64 µM
TGI [7]: 13.2 µM
GI50 [8]: 3.22 µM
TGI [8]: 30.1 µM
GI50 [9]: 2.58 µM
TGI [9]: 17 µM
GI50 [10]: 0.376 µM
TGI [10]: 15 µM
GI50 [11]: 1.24 µM
TGI [11]: > 100 µM
GI50 [12]: 4.26 µM
TGI [12]: 26.2 µM
GI50 [13]: 2.38 µM
TGI [13]: 20.9 µM
GI50 [14]: 1.31 µM
TGI [14]: 4.03 µM
GI50 [15]: 3.57 µM
TGI [15]: 23.4 µM
GI50 [16]: 2.35 µM
TGI [16]: 10 µM
GI50 [17]: 3.13 µM
TGI [17]: 15.5 µM
GI50 [18]: 2.15 µM
TGI [18]: 18.5 µM
GI50 [19]: 3.84 µM
TGI [19]: 20.3 µM
GI50 [20]: 2.3 µM
TGI [20]: 12.3 µM
GI50 [21]: 2.12 µM
TGI [21]: 6.73 µM
GI50 [22]: 0.756 µM
TGI [22]: 15.4 µM
GI50 [23]: 2.55 µM
TGI [23]: 30.7 µM
GI50 [24]: 0.532 µM
TGI [24]: > 84.4 µM
GI50 [25]: 2.08 µM
TGI [25]: 16.5 µM
GI50 [26]: 1.05 µM
TGI [26]: 14.4 µM
GI50 [27]: 1.93 µM
TGI [27]: 14.1 µM
GI50 [28]: 2.8 µM
TGI [28]: 14.2 µM
GI50 [29]: 1.85 µM
TGI [29]: 11.5 µM
GI50 [30]: 1.19 µM
TGI [30]: 6.99 µM
GI50 [31]: 0.821 µM
TGI [31]: 14.1 µM
GI50 [32]: 4.2 µM
TGI [32]: 17.8 µM
GI50 [33]: 4.14 µM
TGI [33]: 31.3 µM
GI50 [34]: 4.54 µM
TGI [34]: 21.5 µM
GI50 [35]: 0.563 µM
TGI [35]: 8.85 µM
GI50 [36]: 4.24 µM
TGI [36]: 41.1 µM
GI50 [37]: 2.08 µM
TGI [37]: 20.9 µM
GI50 [38]: 0.745 µM
TGI [38]: > 19.9 µM
GI50 [39]: 2.33 µM
TGI [39]: 6.47 µM
GI50 [40]: 0.9 µM
TGI [40]: 16.6 µM
GI50 [41]: 2.91 µM
TGI [41]: 12.3 µM
GI50 [42]: 2.51 µM
TGI [42]: > 54.5 µM
GI50 [43]: 0.812 µM
TGI [43]: 4.72 µM
GI50 [44]: 0.878 µM
TGI [44]: 18.8 µM
GI50 [45]: 1.13 µM
TGI [45]: 11.5 µM
GI50 [46]: 5.62 µM
TGI [46]: 32.5 µM
GI50 [47]: 0.526 µM
TGI [47]: 3.6 µM
GI50 [48]: 1.37 µM
TGI [48]: 11.6 µM
GI50 [49]: 2.94 µM
TGI [49]: 16.4 µM
GI50 [50]: 4.69 µM
TGI [50]: 38.6 µM
GI50 [51]: 1.48 µM
TGI [51]: 9.07 µM
GI50 [52]: 3.69 µM
TGI [52]: 19.3 µM
GI50 [53]: 1.63 µM
TGI [53]: 9.1 µM
GI50 [54]: 1.42 µM
TGI [54]: 15.8 µM
GI50 [55]: 0.701 µM
TGI [55]: 3.03 µM
GI50 [56]: 1.08 µM
TGI [56]: 5.35 µM
GI50 [57]: 1.92 µM
TGI [57]: 10.2 µM
